According to US12630536B2, “Cyanotriazine derivative, preparation method therefor, and application thereof” (Chengdu Fanxi Biopharma Co., LTD., priority 2020, dated 2026):
Read-outs that look alike come from different tables or passages of the source.

Experiments:
[1] = biological target: T1, THR-α ligand-binding domain (H6-THR-α) (Homo sapiens, UniProt P10827); experiment: Co-activated peptide recruitment test of THR-α/RXR/GRIP1 (TR_LBD agonist detection, HTRF); assay type: biochemical; conditions: for EC50: Detection of TR_LBD agonist, read-out: TR_α_EC50; for Maximum activity ratio (A520/A495) / Measurement of cpd/T3 (maximum ratio): TR_LBD agonist, TR_α; for Measurement of cpd/T3 (maximum ratio): maximum relative to T3
T1 construct: made in house; host or cells: Escherichia coli BL21 (DE3), vector pET28a
T1 sequence (P10827 148-410 isoform P10827-2 limits assumed): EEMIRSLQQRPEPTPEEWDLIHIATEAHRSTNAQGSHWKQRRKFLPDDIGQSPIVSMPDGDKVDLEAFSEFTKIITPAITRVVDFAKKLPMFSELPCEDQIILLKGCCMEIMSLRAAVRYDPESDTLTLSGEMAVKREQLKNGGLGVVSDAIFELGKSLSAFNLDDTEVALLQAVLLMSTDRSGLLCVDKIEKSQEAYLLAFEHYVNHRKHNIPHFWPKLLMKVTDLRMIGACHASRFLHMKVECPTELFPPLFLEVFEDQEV
T1 sequence (P19793 225-462 partner limits assumed): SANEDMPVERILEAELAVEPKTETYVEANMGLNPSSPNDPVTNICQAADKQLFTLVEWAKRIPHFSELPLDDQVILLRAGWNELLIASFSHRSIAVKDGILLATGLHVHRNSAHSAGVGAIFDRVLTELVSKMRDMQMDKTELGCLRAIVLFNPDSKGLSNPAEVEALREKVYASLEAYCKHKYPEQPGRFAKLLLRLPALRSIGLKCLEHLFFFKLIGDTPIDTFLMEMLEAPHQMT
T1 sequence (Q15596 679-703 partner limits assumed): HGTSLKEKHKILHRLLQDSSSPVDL
Method: (§1) A ligand binding domain of THR-β (amino acids 148-410) (H6-THR-β) and a ligand binding domain of THR-α (amino acids 202-461) (H6-TRα) were cloned into E. coli expression vector pET28a (Novagen, Milwaukee, Wis.) containing N-terminal six His sequences. The resulting recombinant six-His-tagged protein was produced in E. coli BL21(DE3) cells. The cells were grown in Terrific Broth (self-used self-prepared Bacto tryptone (3.3%, w/v), Difico yeast extract (2.0%, w/v) and NaCl (0.5%, w/v) medium), incubated at 25° C. for 24 hours using a shake flask in 0.2 mM IPTG, harvested or dissolved with 5 volumes of buffer A (0.05 M Tris, 0.3 M NaCl, 1% W/V betaine, 0.01 M imidazole, 0.02 M b-mercaptoethanol, pH 8.0). Lysozyme (1.0 mg/ml, Sigma) and CompleteProtease Inhibitor Cocktail (Roche Diagnostics Gmbh) were added to the slurry and the solution was sonicated for one minute and 5 times at 4° C. The suspension was centrifuged at 127,300 RCF for 2 hours in a Ti45 Beckmann rotor and the supernatant was loaded onto an NI NTAAgarose (Quigen 30210) column. After washing with the buffer A, […] or H6-THR-α was eluted with the buffer A containing 0.25 M imidazole.
(§2) 30 microliters of H6-THR-β (50 nM) or H6-THR-α in 50 mM Hepes, pH 7.0, 1 mM DTT, 0.05% NP40 and 0.2 mg/ml BSA (binding buffer) were mixed with an equal volume of EE-RxRα (50 nM) in the binding buffer. […] Aliquot ([…]) was transferred to a 384-well black microtiter plate. HTRF signal was read on a Victor5 reader (PerkinElmer Life and Analytical Sciences). EC50 was calculated.
(§3) Gene clones expressing a ligand-binding domain (amino acids 148-410) of THR-β (H6-THR-β) and a ligand-binding domain (amino acids 202-461) of THR-α (H6-THR-α) were inserted into an Escherichia coli expression vector pET28a, and the expression vector contained one N-terminal 6-His sequence. The expression vector was introduced into an Escherichia coli BL21 (DE3) strain to produce a recombinant protein with a His tag. […] After finishing culturing, a bacterium in culture was collected, and the collected bacterium was resuspended with a lysis solution (0.05 M Tris, 0.3 M NaCl, 1% W/V betaine, 0.01 M imidazole, 0.02 M β-mercaptoethanol, and pH 8.0) with a volume 5 times that of the bacterium, and lysozyme and protease inhibitors were added at the same time, the treated bacteria was subjected to ultrasonic lysis (5 times per minute) in ice bath (4° C.). A lysed suspension was centrifuged at 127300 RCF for 2 hours, a supernatant was loaded on a NI_NTA agarose (Quigen 30210) column, and after washing with a buffer A, an H6-TRβ or H6-TRα protein was eluted with the buffer A containing 0.25 M imidazole.
(§4) A human retinol X receptor (amino acid 225-462) (RxRα) was subjected to engineering modification, so that an N-terminal of the human retinol X receptor had His6 and EE(EFMPME) tags, and then the human retinol X receptor was cloned into a pACYC vector, and produced a His6 EEtagged protein in Escherichia coli. IPTG with a final concentration of 0.1 mM was added into the culture medium for induction, and cultured in a shaking flask at 18° C. for 18 hours. After finishing culturing, a bacterium in culture was collected, and the collected bacterium was re-suspended with a lysis solution (0.05 M Tris, 0.3 M NaCl, 1% W/V betaine, 0.01 M imidazole, 0.02 β-mercaptoethanol, and pH 8.0) with a volume 5 times that of the bacterium, lysozyme and protease inhibitors were added at the same time, and stirred at 4° C. for 30 minutes. Then, a suspension was subjected to an ultrasonic treatment at 4° C. for 30 seconds for 5 times. The suspension was collected, and centrifuged at 12000 RCF for 20 minutes. A supernatant was collected, and the supernatant was filtered with a membrane with a pore size of 0.45 μm, and then added with 0.5% NP-40.

[2] = biological target: T2, THR-β ligand-binding domain (H6-THR-β) (Homo sapiens, UniProt P10828); experiment: Co-activated peptide recruitment test of THR-β/RXR/GRIP1 (TR_LBD agonist detection, HTRF); assay type: biochemical; conditions: for EC50: Detection of TR_LBD agonist, read-out: TR_beta_EC50; for Maximum activity ratio (A520/A495) / Measurement of cpd/T3 (maximum ratio) / α/β: TR_LBD agonist; for Maximum activity ratio (A520/A495) / Measurement of cpd/T3 (maximum ratio): TR_β; for Measurement of cpd/T3 (maximum ratio): maximum relative to T3; for α/β: ratio TR_α EC50 / TR_β EC50
T2 construct: made in house; host or cells: Escherichia coli BL21 (DE3), vector pET28a
T2 sequence (P10828 217-461 limits assumed): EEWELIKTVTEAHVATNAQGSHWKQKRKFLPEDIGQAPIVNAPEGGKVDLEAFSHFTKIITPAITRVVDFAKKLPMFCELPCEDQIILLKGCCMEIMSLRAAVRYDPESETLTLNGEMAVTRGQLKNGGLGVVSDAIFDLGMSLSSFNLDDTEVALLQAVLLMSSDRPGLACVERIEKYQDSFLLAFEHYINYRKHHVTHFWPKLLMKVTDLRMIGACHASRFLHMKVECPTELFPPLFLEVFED
T2 sequence (P19793 225-462 partner limits assumed): T1 sequence (P19793 225-462 partner limits assumed)
T2 sequence (Q15596 679-703 partner limits assumed): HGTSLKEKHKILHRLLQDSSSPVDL
Method: as §1, §2, §3, §4

[3] = system: TR alpha-UAS-bla HEK 293T Cells; experiment: TR cell-based agonist detection, β-lactamase reporter (LiveBLAzer FRET B/G), TR alpha; conditions: for Emax: HEK-293T, 24 h, read-out: Maximum activity ratio; for EC50: Detection of TR_cell-based agonist, HEK 293T-TR alpha, 24 hours, read-out: TR_α_EC50
Method: (§5) A method for testing a THR-α/β activation activity of a compound by an in-vitro cell level was as follows.
(§6) Compounds were transferred to a 384-well plate by an ECHO liquid workstation, and each compound was diluted by 3 times with 10 gradient concentrations, which was in triplicate. 1.5×10^4 DMEM-cultured cells (TR beta-UAS-bla HEK 293T Cells) or 1.0×10^4 TR alpha-UAS-bla HEK 293T Cells were placed in the 384-well plate. HEK 293T-TR beta was incubated in an incubator for 16 hours, and HEK 293T-TR alpha was incubated in an incubator for 24 hours. A LiveBLAzer™-FRET B/G (CCF4-AM) substrate was added into the cell plate to detect expression of β-lactamase in cells, and under excitation of 409 nm, a product produced fluorescence with a wavelength of 447 nm. When the β-lactamase was not expressed, under excitation of 409 nm, fluorescence with a wavelength of 520 nm was directly produced through FRET. Combination between the compound and the protein was determined by detecting a ratio of the two kinds of fluorescence (blue/green, 460 nm/530 nm), thus calculating EC50 of the compound. […] Calculation of a factor Z (greater than 0.5) would be used for monitoring a stability of each experiment.

[4] = system: TR beta-UAS-bla HEK 293T Cells; experiment: TR cell-based agonist detection, β-lactamase reporter (LiveBLAzer FRET B/G), TR beta; conditions: for Emax: read-out: Maximum activity ratio (A460/A530); for EC50: read-out: TR_β_EC50
Method: as §5, §6

[5] = Homo sapiens, TR_cell-based agonist, TR_α
[6] = Homo sapiens, HEK-293T, 16 h, TR_cell-based agonist, TR_β
[7] = Homo sapiens, Detection of TR_cell-based agonist, HEK 293T-TR beta, 16 hours

Structure (SMILES)	EC50 [1]	Maximum activity ratio (A520/A495) [1]	Measurement of cpd/T3 (maximum ratio) [1]	EC50 [2]	Maximum activity ratio (A520/A495) [2]	Measurement of cpd/T3 (maximum ratio) [2]	α/β [2]	Emax [3, 5]	EC50 ([3]; Homo sapiens)	Emax [4, 6]	EC50 [4, 7]	EC50 ([4]; Homo sapiens, HEK-293T, 16 h)	Test cpd/T3 (maximum ratio) ([3]; TR_cell-based agonist, TR_α, maximum relative to T3)	Measurement of cpd/T3 (maximum ratio) ([4]; TR_cell-based agonist, TR_β, maximum relative to T3)	α/β ([4]; TR_cell-based agonist, ratio TR_α EC50 / TR_β EC50)	EC50 [3]	Maximum activity ratio ([3]; TR_cell-based agonist, TR_α)	EC50 ([4]; Detection of TR_cell-based agonist, HEK 293T-TR beta, 16 hours)	Maximum activity ratio (A460/A530) ([4]; TR_cell-based agonist, TR_β)
Cn1cnc2cc(Oc3c(Br)cc(-n4nc(C#N)c(=O)[nH]c4=O)cc3Br)ccc21 [Compound 4, 2-(3,5-dibromo-4-((1-methyl-1H-benzo[d]imidazol-5-yl)oxy)phenyl)-3,5-dioxo-2,3,4,5-tetrahydro-1,2,4-triazine-6-carbonitrile]	581 nM	1.59	29.5%	51.7 nM	1.46	26.6%	11.25	40%	> 20000 nM	16.6%	> 20000 nM								
N[C@@H](Cc1cc(I)c(Oc2ccc(O)c(I)c2)c(I)c1)C(=O)O [Compound T3, 3,5,3′-tri-iodine-L-thyronine, reference compound]									0.055 nM			0.325 nM							
N#Cc1nn(-c2cc(Cl)c(Oc3ccc4ncn(C5CCNC5)c4c3)c(Cl)c2)c(=O)[nH]c1=O (stereo not drawn) [Compound 6]				> 5000 nM															
N#Cc1nn(-c2cc(Cl)c(Oc3ccc4ncn(C5CCN(Cc6ccccc6)C5)c4c3)c(Cl)c2)c(=O)[nH]c1=O (stereo not drawn) [Compound 7, 2-(4-((1-(1-benzylpyrrolidin-3-yl)-1H-benzo[d]imidazol-6-yl)oxy)-3,5-dichlorophenyl)-3,5-dioxo-2,3,4,5-tetrahydro-1,2,4-triazine-6-carbonitrile]	> 5000 nM			13.4 nM		22.6%		19%	> 20000 nM	11.6%	> 20000 nM								
Cn1c(CCc2ccccc2)nc2cc(Oc3c(Cl)cc(-n4nc(C#N)c(=O)[nH]c4=O)cc3Cl)ccc21 [Compound 9, 2-(3,5-dichloro-4-((1-methyl-2-phenethyl-1H-benzo[d]imidazol-5-yl)oxy)phenyl)-3,5-dioxo-2,3,4,5-tetrahydro-1,2,4-triazine-6-carbonitrile]	> 5000 nM	1.39		14.8 nM	1.84	33.6%	>337.84	31%	> 20000 nM	20.4%	> 20000 nM								
N#Cc1nn(-c2cc(Cl)c(Oc3ccc4ncn(C5CCCC5)c4c3)c(Cl)c2)c(=O)[nH]c1=O [Compound 8, 2-(3,5-dichloro-4-((1-cyclopen-tyl-1H-benzo[d]imidazol-6-yl)oxy)phenyl)-3,5-dioxo-2,3,4,5-tetrahydro-1,2,4-triazine-6-carbonitrile]	55 nM	2.32	43.0%	5.48 nM	2.96	54.0%	10.04	72%	2200 nM	33.9%	596 nM		32.7%	6.2%	3.69				
N#Cc1nn(-c2cc(Cl)c(Oc3ccc4ncn(CCN5CCCC5)c4c3)c(Cl)c2)c(=O)[nH]c1=O [Compound 5]	1310 nM	2.45	45.5%	45.5 nM	2.69	49.1%	28.81									> 20000 nM	0.42	> 20000 nM	0.134
Cn1cnc2cc(Oc3c(Cl)cc(-n4nc(C#N)c(=O)[nH]c4=O)cc3Cl)ccc21 [Compound 2, 2-(3,5-dichloro-4-((1-methyl-1H-benzo[d]imidazol-5-yl)oxy)phenyl)-3,5-dioxo-2,3,4,5-tetrahydro-1,2,4-triazine-6-carbonitrile]	> 5000 nM			154 nM		22.1%		35%	> 20000 nM	14.5%	> 20000 nM								
